According to patent US20100111838A1, “BRAIN-LOCALIZING POLYPEPTIDES COMPRISING A MULTIVALENT BINDING MOIETY AND IMPROVED METABOLIC STABILITY” (Proteus Sciences Co., Ltd, priority 2007, published 2010):
Where a SMILES comes first, the peptide text is derived from it. The star is where a group is joined. 5FAM = O=C1OC2(c3ccc(O)cc3Oc3cc(O)ccc32)c2ccc(C(=O)*)cc21

Test: In vitro metabolism test of fluorescein-labeled peptides in liver extract solution (HPLC)
Assay type: in vitro ADME
Settings: liver extract solution (supernatant of liver homogenate), mouse liver extract solution, 37° C., read-out: residual ratio of unchanged peptide in liver extract solution
Protocol: To compare the degree of improved stability observed in [C]K004K, an experiment system that uses a fluorescent pigment as a tracer instead of an isotope labeling for in vitro evaluation using a mouse liver homogenate was produced.
Add two parts of Hanks' solution to one part of mouse liver, and homogenize ↓ Centrifuge and collect supernatant ↓ Add five parts of Hanks' solution (liver extract solution) ↓ Add 5 μL of peptide to 245 μL of liver extract solution ↓
↓ Take 50 μL of sample 0, 5, 30, 60, and 120 minutes after incubation ↓ Add 200 μL, of 70% ethanol (pre-cooled at −30° C.) and then vortex ↓ Add 500 μL of chloroform (pre-cooled at −30° C.) and then vigorously vortex ↓ Centrifuge and collect supernatant ↓ Add an equivalent amount of DMF and then vortex ↓ Centrifuge and collect supernatant ↓ HPLC analysis using Co-sense
[C](Flu)-C004C: A peptide cyclized by adding C to both ends of the 004 sequence and forming a disulfide bond between them was labeled with fluorescein at its N-terminus. [C](Flu)-K004C: A peptide cyclized by adding K to the N terminus and C to the C terminus of the 004 sequence and forming a peptide bond between the N- and C-termini was labeled with fluorescein at its N terminus. [C](Flu)-K004K: A peptide cyclized by adding K to both ends of the 004 sequence and forming a peptide bond between the N- and C-termini was labeled with fluorescein at its N terminus. […]

SMILES	remaining at 5 min (five minutes) [%]	remaining at 1 h (60-minute incubation) [%]
CC(C)C[C@@H]1NC(=O)[C@H](Cc2c[nH]cn2)NC(=O)[C@H](CCCNC(=N)N)NC(=O)[C@H](C(C)C)NC(=O)[C@H](C(C)C)NC(=O)[C@H](CCCCNC(=O)c2ccc3c(c2)C(=O)OC32c3ccc(O)cc3Oc3cc(O)ccc32)NC(=O)[C@H](CS)NC(=O)[C@H](CCC(N)=O)NC(=O)[C@H](CCC(N)=O)NC1=O [[C](Flu)-K004C, reference compound] (cyclo(K(5FAM)VVRHLQQC))	40	–
CC(C)C[C@@H]1NC(=O)[C@H](Cc2c[nH]cn2)NC(=O)[C@H](CCCNC(=N)N)NC(=O)[C@H](C(C)C)NC(=O)[C@H](C(C)C)NC(=O)[C@H](CCCCNC(=O)c2ccc3c(c2)C(=O)OC32c3ccc(O)cc3Oc3cc(O)ccc32)NC(=O)[C@H](CCCCN)NC(=O)[C@H](CCC(N)=O)NC(=O)[C@H](CCC(N)=O)NC1=O [[C](Flu)-K004K] (cyclo(K(5FAM)VVRHLQQK))	–	~50
